This is an account of results in patent publication US20190015400A1, “Antifungal Compositions” (priority 2017, published 2019).

In series [1] the test system is C. glabrata ATCC 2001 (strain H). Kind of series: MIC and checkerboard assay, azoles + antihistamines. In kind it is cell-based, Candida glabrata. The settings on record: in combination with POS. Here is the method: Determination of minimum inhibitory concentration (MIC) values. MIC values were recorded for all antifungals and antihistamines in order to determine the concentration range of compounds to be used in the checkerboard assays.
The MIC assays were done using the broth microdilution method as described in CLSI document M27-A3 with minor modifications. Yeast cultures were started by picking a colony from a PDA plate stored at 4° C. The colonies were grown in YEPD medium overnight at 35° C. with shaking at 200 rpm. In a 96-well plate compounds were diluted lengthwise along the plate in serial 2-fold dilutions in the RPMI 1640 medium. The yeast cultures were diluted in RPMI 1640 medium to an OD600 within the range of 0.12 and 0.15 (˜1×10^6 cells/mL). The fungal cells were further diluted by taking 25 μL of fungal cells and adding them to 10 mL of RPMI 1640 medium before adding 100 μL to plate (200 μL total volume). The plates were incubated at 35° C. for 48 h. Visual inspection of the wells for no growth was used to determine the MIC. All compounds were tested in duplicate (TABLES 6 and 7).
Checkerboard assays were done as previously described to determine the fractional inhibitory concentration index (FICI). 2-fold dilutions of the azole drug were made in RPMI 1640 medium lengthwise along the plate. For the antihistamine, 2-fold serial dilutions were made in sterile tubes with RPMI 1640 medium, then aliquoted into the plate. […] The maximal amount was used in the checkerboard assays if complete inhibition was not observed in the MIC assays. Cultures were started by picking a colony from a plate and growing in YEPD medium overnight at 35° C. with shaking at 200 rpm. Cultures were diluted in RPMI 1640 medium to an OD600 between 0.12 and 0.15 (˜1×10^6 cells/mL). Cells were then further diluted by taking 25 μL of cell suspension and adding to 10 mL of RPMI 1640 medium. After the drugs were added to the plate with 100 μL of medium, 100 μL of fungal cells were added. Plates were incubated at 35° C. for 48 h and visual inspection was used to determine wells with no growth. All experiments were carried out in duplicate. The FICI was calculated based on the formula below. The combinational effect of the 2 tested compounds were considered synergistic (SYN) if FICI≤0.5, additive (ADD) if 0.5<FICI≤4, and antagonistic if FICI>4 (TABLES 6-9).

Series [2] relates to C. albicans ATCC 10231 (strain B). Kind of series: Time-kill assay, POS and EBA. In kind it is cell-based, Candida albicans. Particulars: POS + EBA combination at 1×MIC. Here is the method:
(§1) The protocol for time-kill assays followed methods previously described with minor modifications. Yeast cultures were grown overnight in YEPD medium at 35° C. with shaking at 200 rpm. A working stock of fungal cells was made by diluting cultures in 1640 medium to an OD600 of 0.125 (˜1×10^6 CFU/mL). From the working stock, 100 μL of cells was added to 4.9 mL of RPMI 1640 medium in sterile culture tubes, making the starting fungal cell concentration ˜1×10^5 CFU/mL. Drug was then added to the fungal cells. […] Treated fungal cultures were incubated in the culture tubes at 35° C. with 200 rpm shaking for 24 h. Samples were aliquoted from the different treatments at regular time points (0, 3, 6, 9, 12, and 24 h) and plated in duplicate. For each time point, cultures were vortexed, 100 μL of culture was aspirated, and 10-fold serial dilutions were made in sterile ddH2O. From the appropriate dilutions, 100 μL of fungal suspension was spread on PDA plates and incubated at 35° C. for 48 h before colony counts were determined. At 24 h, 50 μL of 1 mM resazurin in phosphate buffered saline (PBS) was added to the treatments and incubated at 35° C. with 200 rpm shaking for 2 h in the dark for visual inspection. […] Experiments were performed in duplicate.

The subject of series [3] is C. glabrata ATCC 2001 (strain H). Briefly: Time-kill assay, POS and EBA. The series is classed as cell-based, Candida glabrata. Particulars: POS + EBA combination at 1×MIC. As for the experimental part: as §1
The test system of series [4] is A549 cells. Briefly: Mammalian cytotoxicity (resazurin cell viability), POS and EBA. In kind it is cell-based, human. Particulars: EBA alone at 25 μg/mL. As for the experimental part: (§2) To examine whether the inhibitory effect of the antifungal and antihistamine combinations is specific to fungal cells, the combinations were tested with 4 mammalian cell lines: A459, BEAS-2B, HEK-293, and HaCaT. […] The assays were done in 96-well plates. A549 and BEAS-2B cells were plated at a density of 3×10^3 cells/mL, HaCaT were plated at 2×10^4 cells/mL, and HEK-293 cells were plated at 1×10^4 cells/mL as determined by using a hemacytometer. […] All assays were done in quadruplicate.
(In general: The colour change of resazurin is a common sign of viable cells or microbes.)

In series [5] the test system is BEAS-2B cells. The description is as above. In kind it is cell-based, human. The settings on record: EBA alone at 25 μg/mL. Here is the method:
as §2

The test system of series [6] is HEK-293 cells. The description is as above. The series is classed as cell-based, human. The settings on record: EBA alone at 25 μg/mL. Here is the method: as §2
Series [7] relates to HaCaT cells. Described as above. In kind it is cell-based, human. Particulars: EBA alone at 25 μg/mL. As for the experimental part:
as §2

Series [8] has as its system C. albicans ATCC 10231 (strain B) biofilm. Briefly: Biofilm disruption assay (XTT, SMIC90), POS and EBA. The series is classed as cell-based, Candida albicans. Particulars: drug alone. As for the experimental part: (§3) Biofilm disruption assays. […] Biofilm assays were performed in 96-well plates using XTT [2,3-bis(2-methoxy-4-nitro-5-sulfophenyl)-2H-tetrazolium-5-carboxanilide] to measure the viability of the biofilm as previously described. An overnight culture of yeast was grown at 35° C. in YEPD medium with shaking at 200 rpm. The overnight culture was diluted in RPMI 1640 medium to an OD600 between 0.12 and 0.15 to make a working stock. Working stock was transferred to the 96-well plate in 100 μL aliquots, leaving one column empty for the sterile control. The plates were incubated at 37° C. for 24 h to allow formation of the biofilm. The medium and planktonic cells from the plate were then aspirated. PBS was then used to wash any remaining planktonic cells off of the biofilm wells. 100 μL of PBS was aliquoted into wells and then removed. The wells were washed 3 times with PBS. […] Plates were incubated at 37° C. for 24 h. Finally, the plates were washed 3 times with PBS before adding 100 μL of XTT dye. The XTT was prepared by dissolving XTT at 0.5 mg/mL concentration in sterile PBS. Before adding to a plate, 1 μL of 10 mM menadione in acetone was added to 10 mL of the 0.5 mg/mL solution of XTT. After addition of XTT (containing menadione), the plates were incubated at 3 h at 37° C. in the dark. 80 μL of liquid from each well was transferred to a new plate. Plates were then read with a SpectraMax M5 plate reader (Molecular Devices, Sunnyvale, Calif., USA) for absorbance at 450 nm. For these experiments, we determined the sessile MIC (SMIC90), which is defined as the drug concentration required to inhibit the metabolic activity of biofilm by 90% compared to the growth control. The SMIC90 values were used to calculate the FICI as described above (TABLE 10). The plates used to determine the SMIC90 are provided in FIGS. 91A-H. Each assay was performed in duplicate.
A general note: Tetrazolium dyes change colour on reduction, which living cells bring about.

The subject of series [9] is C. glabrata ATCC 2001 (strain H) biofilm. Described as above. In kind it is cell-based, Candida glabrata. Particulars: drug alone. Here is the method: as §3
The conditions of series [10]: aqueous assay medium, from DMSO stock.

Structures are written as SMILES.

Take `CC(C)(C)c1ccc(C(=O)CCCN2CCC(OC(c3ccccc3)c3ccccc3)CC2)cc1` [EBA, ebastine]: in series [1], the FICI stood at 0.05. Also, the “CFU/mL through 24 h” value in [2] and in [3] was 10^6 CFU/mL throughout. The cell survival in series [4], in series [5], in series [6] and in series [7] was roughly 0% each time.
Consider `C[C@@H]1[C@H](O)[C@@H](C)/C=C/C=C/C=C/C=C/C=C/C=C/C=C/[C@H](O[C@@H]2O[C@H](C)[C@@H](O)[C@H](N)[C@@H]2O)C[C@@H]2O[C@](O)(C[C@@H](O)C[C@@H](O)[C@H](O)CC[C@@H](O)C[C@@H](O)CC(=O)O[C@H]1C)C[C@H](O)[C@H]2C(=O)O` [AMB, amphotericin B], for which the values for the SMIC90 in series [8] and in [9] were greater than 32 µg/mL and 4 µg/mL, respectively.
For the compound `CC(C)(C)c1ccc(C(O)CCCN2CCC(C(O)(c3ccccc3)c3ccccc3)CC2)cc1` (stereo not shown) [TERF, terfenadine], in [10], the “maximal concentration where no precipitation was observed” value came to 42.7 µg/mL.
